The results in this text go back to patent publication US8765730B2 (Hoffmann-La Roche Inc, priority 2010, dated 2014).

One may read the EC50 as the concentration at which the effect is half-maximal.

The target in one assay is T1, human GPBAR1 receptor (Homo sapiens, UniProt Q8TDU6).
T1 construct: expressed in transfected cells
T1 sequence (Q8TDU6 1-330): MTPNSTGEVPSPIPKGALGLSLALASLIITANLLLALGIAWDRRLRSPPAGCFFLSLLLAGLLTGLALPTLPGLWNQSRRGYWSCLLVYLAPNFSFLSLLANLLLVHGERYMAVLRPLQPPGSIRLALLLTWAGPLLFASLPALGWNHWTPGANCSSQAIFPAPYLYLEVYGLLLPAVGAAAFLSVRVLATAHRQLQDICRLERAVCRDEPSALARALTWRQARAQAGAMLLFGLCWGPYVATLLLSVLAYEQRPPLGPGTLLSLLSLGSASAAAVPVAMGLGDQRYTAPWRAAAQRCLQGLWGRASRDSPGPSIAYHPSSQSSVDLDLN
In words: functional cAMP assay in CHO-dhfr(minus) cells expressing human GPBAR1 receptors. Format: cell-based. Conditions: functional cAMP assay, 30 min at 30° C., read-out: human EC50. Put shortly: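 Agonist cAMP read-out: stable GPBAR1 CHO-dhfr− clone, 30 min compound exposure at 30° C following 30 min IBMX (1 mM) preincubation in Krebs Ringer bicarbonate. Time-resolved energy-transfer detection gives EC50; parental CHO cells serve as counter-screen.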
In general terms: Cyclic AMP is a second messenger, typically raised through Gs and lowered through Gi signalling.
`CCOC(=O)CCCNC(=O)c1ccc(C(C/C(=N\O)c2ccc(=O)n(C)c2)c2ccccc2C)cc1` (stereo not drawn) [Example 212, 4-{4-[3-[(E)-Hydroxyimino]-3-(1-methyl-6-oxo-1,6-dihydro-pyridin-3-yl)-1-o-tolyl-propyl]-benzoylamino}-butyric acid ethyl ester]: the EC50 came to 0.153 µM. As for `COC1CN(c2ccc([C@@H](C/C(=N\O)c3ccnc(C)c3)c3ccccc3C)cc2)C1` [Example 270, (E,R)-3-[4-(3-Methoxy-azetidin-1-yl)-phenyl]-1-(2-methyl-pyridin-4-yl)-3-o-tolyl-propan-1-one oxime], the EC50 worked out at 0.005 µM.

The same assay, now with this note: human EC50, functional cAMP assay, 30 min at 30° C.
For the compound `Cc1cnc(F)c(/C(CC(c2ccc(Br)cc2)c2ccccc2C)=N/O)c1` (stereo not drawn) [Example 128, (E)-3-(4-Bromo-phenyl)-1-(2-fluoro-5-methyl-pyridin-3-yl)-3-o-tolyl-propan-1-one oxime], the response was half-maximal at 0.65 µM (EC50). `COc1cc(C(CC(c2ccc(Br)cc2)c2ccccc2C)=NO)ccn1` (racemic) [Example 109, 3-(4-Bromo-phenyl)-1-(2-methoxy-pyridin-4-yl)-3-o-tolyl-propan-1-one oxime] had an EC50 of 0.702 µM. On the same count and under the same terms, to `Cc1ccccc1C(C/C(=N\O)c1ccc(=O)n(C)c1)c1ccc(C(=O)N[C@H](C)CO)cc1` (stereo partly drawn) [Example 301, 4-((E)-3-(Hydroxyimino)-3-(1-methyl-6-oxo-1,6-dihydropyridin-3-yl)-1-o-tolylpropyl)-N-((R)-1-hydroxypropan-2-yl)benzamide] belongs 4.1 µM; to `Cc1cc(/C(CC(c2ccc(-c3ccc(C(=O)O)c(Cl)c3)cc2)c2ccc(Cl)cc2F)=N/O)ccn1` (stereo not drawn) [Example 451, 3-Chloro-4′-[1-(4-chloro-2-fluoro-phenyl)-3-[(E)-hydroxyimino]-3-(2-methyl-pyridin-4-yl)-propyl]-biphenyl-4-carboxylic acid], 0.024 µM; to `Cc1cc(/C(CC(c2ccc(-c3c[nH]c(=O)[nH]c3=O)cc2)c2ccc(Cl)cc2F)=N/O)ccn1` (stereo not drawn) [Example 458, 5-{4-[1-(4-Chloro-2-fluoro-phenyl)-3-[(E)-hydroxyimino]-3-(2-methyl-pyridin-4-yl)-propyl]-phenyl}-1H-pyrimidine-2,4-dione], 0.022 µM. Still for that read-out and setting: to `Cc1ccccc1[C@H](C/C(=N\O)c1ccc(=O)n(C)c1)c1ccc(C2CCN(C(=O)OC(C)(C)C)CC2)cc1` [Example 506, (R,E)-tert-Butyl 4-(4-(3-(hydroxyimino)-3-(1-methyl-6-oxo-1,6-dihydropyridin-3-yl)-1-o-tolylpropyl)phenyl)piperidine-1-carboxylate] belongs 0.634 µM. In turn, `Cc1ccccc1C(C/C(=N\O)c1ccc(=O)n(C)c1)c1ccc(C(=O)N2CCC(CC(=O)O)CC2)cc1` (stereo not drawn) [Example 210, (1-{4-[3-[(E)-Hydroxyimino]-3-(1-methyl-6-oxo-1,6-dihydro-pyridin-3-yl)-1-o-tolyl-propyl]-benzoyl}-piperidin-4-yl)-acetic acid] displayed an EC50 of 6.89 µM. Compound `Cn1cc(/C(CC(c2ccc(-c3ccc(C(=O)O)cc3)cc2)c2ccc(F)cc2Cl)=N/O)ccc1=O` (stereo not drawn) [Example 412, (E)-4′-(1-(2-chloro-4-fluorophenyl)-3-(hydroxyimino)-3-(1-methyl-6-oxo-1,6-dihydropyridin-3-yl)propyl)biphenyl-4-carboxylic acid] showed an EC50 of 0.03 µM. Same read-out and setting: with `CC(=O)N1CCC(c2ccc([C@@H](C/C(=N\O)c3ccnc(C)c3)c3ccc(Cl)cc3C)cc2)CC1` [Example 511, (R,E)-1-(4-(4-(1-(4-Chloro-2-methylphenyl)-3-(hydroxyimino)-3-(2-methylpyridin-4-yl)propyl)phenyl)piperidin-1-yl)ethanone] the figure was 0.036 µM; with `Cc1ccccc1C(C/C(=N/O)c1ccncc1)c1ccc(-c2cncnc2)cc1` (single isomer, unassigned; (+)) [Example 38, (+)-(Z)-1-pyridin-4-yl-3-(4-pyrimidin-5-yl-phenyl)-3-o-tolyl-propan-1-one oxime], 7.65 µM; with `COCCn1cc(/C(CC(c2ccc(S(C)(=O)=O)cc2)c2ccc(Cl)cc2C)=N/O)ccc1=O` (stereo not drawn) [Example 341, (E)-5-(3-(4-Chloro-2-methylphenyl)-1-(hydroxyimino)-3-(4-(methylsulfonyl)phenyl)-propyl)-1-(2-methoxyethyl)pyridin-2(1H)-one], 0.164 µM.

`Cc1cc(/C(C[C@@H](c2ccccc2)c2ccc(Cl)cc2C)=N/O)ccn1` [Example 390, (S)-3-(4-Chloro-2-methyl-phenyl)-1-(2-methyl-pyridin-4-yl)-3-phenyl-propan-1-one oxime]: the EC50 stood at 0.053 µM. On to `Cc1ccccc1C(CC(=NO)c1ccncc1)c1ccc(N2CCOCC2)cc1` (racemic) [Example 41, 3-(4-Morpholin-4-yl-phenyl)-1-pyridin-4-yl-3-o-tolyl-propan-1-one oxime], for which the EC50 was 0.036 µM. `Cc1ccccc1C(C/C(=N\O)c1cc(C)c(O)c(C)c1)c1ccc(Br)cc1` (stereo not drawn) [Example 152, (E)-3-(4-Bromo-phenyl)-1-(4-hydroxy-3,5-dimethyl-phenyl)-3-o-tolyl-propan-1-one oxime]: the EC50 amounted to 5.12 µM. Same read-out and setting: to `O/N=C(\CC(c1ccccc1)c1ccc(-c2cncnc2)cc1)c1ccncc1` (stereo not drawn) [Example 22, (E)-3-Phenyl-1-pyridin-4-yl-3-(4-pyrimidin-5-yl-phenyl)-propan-1-one oxime] belongs 0.033 µM. Same read-out and setting: with `Cc1cc(/C(C[C@H](c2ccc(C3CCN(C(=O)OC(C)(C)C)CC3)cc2)c2ccc(Cl)cc2C)=N/O)ccn1` [Example 387, (R,E)-tert-Butyl 4-(4-(1-(4-chloro-2-methylphenyl)-3-(hydroxyimino)-3-(2-methylpyridin-4-yl)propyl)phenyl)piperidine-1-carboxylate] the figure was 0.371 µM.

Take `ON=C(CC1c2ccccc2-c2ccccc21)c1ccncc1` (racemic) [Example 61, 2-(9H-Fluoren-9-yl)-1-pyridin-4-yl-ethanone oxime]: the EC50 was 4.59 µM. Still for that read-out and setting: with `ON=C(CC(c1ccccc1)c1ccccc1)c1cc(F)ncc1Cl` (racemic) [Example 58, 1-(5-Chloro-2-fluoro-pyridin-4-yl)-3,3-diphenyl-propan-1-one oxime] the figure was 0.076 µM; with `Cc1cc(/C(CC(c2ccc(Br)cc2)c2ccc(F)cc2C)=N/O)ccn1` (stereo not drawn) [Example 140, (E)-3-(4-Bromophenyl)-3-(4-fluoro-2-methylphenyl)-1-(2-methylpyridin-4-yl)propan-1-one oxime], 0.012 µM; with `Cc1cc(Cl)ccc1C(C/C(=N\O)c1ccc(=O)n(C)c1)c1ccc(-c2ccc(C(=O)NCC(=O)O)cc2)cc1` (single isomer, unassigned; (-)) [Example 255, (−)-({4′-[1-(4-Chloro-2-methyl-phenyl)-3-[(E)-hydroxyimino]-3-(1-methyl-6-oxo-1,6-dihydro-pyridin-3-yl)-propyl]-biphenyl-4-carbonyl}-amino)-acetic acid], 0.03 µM. In turn, `Cc1cc(/C(C[C@@H](c2ccc(O)cc2)c2ccc(Cl)cc2C)=N/O)ccn1` [Example 365, (S)-3-(4-Chloro-2-methyl-phenyl)-3-(4-hydroxy-phenyl)-1-(2-methyl-pyridin-4-yl)-propan-1-one oxime] showed an EC50 of 0.233 µM. On the same count and under the same terms, with `Cc1cc(Cl)ccc1C(C/C(=N\O)c1ccc(=O)n(C)c1)c1ccc(CO)cc1` (stereo not drawn) [Example 337, (E)-5-(3-(4-Chloro-2-methylphenyl)-1-(hydroxyimino)-3-(4-(hydroxymethyl)phenyl)-propyl)-1-methylpyridin-2(1H)-one] the figure was 0.014 µM.

Turning to `Cc1cc(/C(CC(c2ccc(C(=O)NC[C@@H](C)O)cc2)c2ccc(F)cc2F)=N/O)ccn1` (stereo partly drawn) [Example 434, 4-[1-(2,4-Difluoro-phenyl)-3-[(E)-hydroxyimino]-3-(2-methyl-pyridin-4-yl)-propyl]-N—((R)-2-hydroxy-propyl)-benzamide], the EC50 was 0.049 µM. As to `Cc1cc(/C(C[C@H](c2ccc(N(C)CCO)cc2)c2ccccc2C)=N/O)ccn1` [Example 268, (E,R)-3-{4-[(2-Hydroxy-ethyl)-methyl-amino]-phenyl}-1-(2-methyl-pyridin-4-yl)-3-o-tolyl-propan-1-one oxime], the 50% effective concentration (EC50) is 0.013 µM. As for `Cc1cc(/C(C[C@H](c2ccc(N3CCN(S(C)(=O)=O)CC3)cc2)c2ccccc2C)=N/O)ccn1` [Example 144, (E,R)-1-(2-Methylpyridin-4-yl)-3-(4-(4-(methylsulfonyl)piperazin-1-yl)phenyl)-3-o-tolylpropan-1-one oxime], the EC50 worked out at 0.017 µM. Still for that read-out and setting: to `Cn1cc(/C(CC(c2ccc(Br)cc2)C2CCCC2)=N/O)ccc1=O` (stereo not drawn) [Example 172, 5-{3-(4-Bromo-phenyl)-3-cyclopentyl-1-[(E)-hydroxyimino]-propyl}-1-methyl-1H-pyridin-2-one] belongs 0.056 µM; to `Cc1ccc(C(C/C(=N\O)c2ccc(=O)n(C)c2)c2ccc(-c3ccc(C(=O)O)cc3)cc2)c(F)c1` (stereo not drawn) [Example 411, (E)-4′-(1-(2-fluoro-4-methylphenyl)-3-(hydroxyimino)-3-(1-methyl-6-oxo-1,6-dihydropyridin-3-yl)propyl)biphenyl-4-carboxylic acid], 0.995 µM; to `Cc1cc(/C(C[C@H](c2ccc(N3CCC(C(=O)NCC(=O)O)CC3)cc2)c2ccccc2C)=N/O)ccn1` [Example 369, (R,E)-2-(1-(4-(3-(Hydroxyimino)-3-(2-methylpyridin-4-yl)-1-o-tolylpropyl)phenyl)-piperidine-4-carboxamido)acetic acid], 0.002 µM.
